Values quoted from earlier work in US20220249506A1, “Meloxicam-Containing Granulated Product” (SSP Co., Ltd., priority 2019, published 2022).

Conditions: low pH range of pH 5.0 or less

Cc1cnc(NC(=O)C2=C(O)c3ccccc3S(=O)(=O)N2C)s1 [meloxicam]
Solubility in water: almost insoluble in water
